# US10646529B2, “Methods of obtaining natural products from the comestible fluids and methods of use” (BOARD OF TRUSTEES, RUTGERS, THE STATE UNIVERSITY OF NEW …, priority 2010, dated 2020)
# How the values were obtained:
# Format in all cases: physicochemical
# [1] = Sorption of quercetin from grape juice by soybean flour (HPLC-MS); conditions: 5 minutes, n=1; for % Quercetin Sorbed to SF / Concentration of Quercetin in Soybean flour: Concord grape juice 50 mL, soybean flour 30 g/L
# Experimental: Soybean flour (30 g/L) was added to 50 mL of Concord grape juice and mixed at room temperature for five minutes. The juice was separated from the flour by centrifugation and then filtered through a 0.22 μm syringe filter. Untreated and soybean flour-treated juice samples (n=1) were processed as described in Example 8 and the quercetin content of untreated and soybean flour-treated samples was determined by HPLC-MS. Quercetin is a polyphenolic flavonoid compound. More specifically, it is a flavonol known in the art to have anti-inflammatory and antioxidant properties, and it is expected to be useful in treating cancer. Quercetin is also known to have endurance-promoting effects.
# [2] = Sorption of caffeine from green tea by defatted soybean flour (HPLC-MS); conditions: green tea after SFDF 30 g/L, n=1
# Experimental: The amount of caffeine in the untreated and soybean flour-treated tea samples (n=1) was also tested. […] Caffeine is a psychoactive stimulant that provides health benefits beyond the familiar increase in alertness and energy associated with coffee and tea consumption. The untreated and flour-treated tea samples described above were diluted 10 times in 0.1% acetic acid (1 μL glacial acetic acid and 1 mL water). Samples were subject to HPLC-MS and caffeine was quantified against a caffeine standard curve.
# [3] = Sorption of sesquiterpene lactones from chicory root extract to defatted soybean flour (HPLC-MS peak area); conditions: chicory root water extract 50 ml, defatted soybean flour 100 g/L, 5 minutes
# Experimental: Dried chicory root was ground to a powder and 25 g was extracted in 500 ml of water for three hours in a 50° C. water bath with sonication. The water extract was separated from the plant material by filtration. Defatted soybean flour was mixed for 5 minutes with 50 ml of the chicory root extract at a concentration of 100 g/L followed by centrifugation (10 minutes, 15,000 rpm) and filtration of the supernatant. Untreated and soybean flour-treated chicory root extract were subjected to HPLC-MS; the injection volume for each sample was 10 μl. The amounts of the dihydrolactucin, lactucopicrin and dihydrolactucopicrin compounds present in the chicory root extract sorbed to the soybean flour were determined by calculating the percent decrease in peak area before and after treatment of the chicory extract with soybean flour.
# [4] = Sorption of 6-gingerol to full-fat soybean flour (HPLC-MS peak area); conditions: 6-gingerol 9 μg/ml in water, full-fat soybean flour 30 g/L, 10 ml, 5 minutes
# Experimental: 6-Gingerol (Sigma) was diluted in water to a concentration of 9 μg/ml. Full-fat soybean flour was added to the solution at a concentration of 30 g/L in a volume of 10 ml, mixed for 5 minutes and then centrifuged for 10 minutes at 4000 rpm. The supernatant was removed. Full-fat soybean flour was used as a control. Both the 6-gingerol solution before soybean flour treatment (i.e., plant juice) and that obtained after soybean flour treatment (i.e., plant liquor) were subjected to HPLC-MS; the injection volume for each sample was 10 μl.
# [5] = Sorption of resveratrol from grape juice by soybean flour (HPLC-MS)
# Experimental: Soybean flour (30 g/L) was added to 50 mL of Concord grape juice and mixed at room temperature for five minutes. The juice was separated from the flour by centrifugation and then filtered through a 0.22 μm syringe filter. The resveratrol content of the untreated and flour-treated juice samples (n=1) was quantified by HPLC-MS according to a previously published method (Wang et al., J. Agric. Food Chem., 50:431-435, 2002, the disclosure of which is incorporated herein by reference in its entirety.).
# The enriched substance was prepared as follows. Briefly, 2 ml of untreated or soybean flour-treated grape juice sample was mixed with 20 ml of methanol overnight and samples were then centrifuged at 2280 g for 5 minutes and the methanol portion was removed. The solid residue was washed with an additional 10 ml of methanol. Methanol supernatants were combined and evaporated using a rotary evaporator and the methanol-free samples were diluted in 10 ml of water for enzymatic hydrolysis with 30 mg β-D-glucosidase (2.3 units/mg). Each sample was then extracted four times with 7 ml of water-saturated ethyl acetate. Ethyl acetate extracts were combined and evaporated to dryness under vacuum using a rotary evaporator. Residues were dissolved in 1 ml of methanol/0.5% formic acid (7:3; v/v) for LC-MS analysis. Standards of resveratrol were prepared for LC-MS to generate standard curves and quantify the levels of each compound in juice samples.
# [6] = Concord grape juice 50 mL, soybean flour 30 g/L, 5 minutes, n=1
compound,measurement,setting,value
O=c1c(O)c(-c2ccc(O)c(O)c2)oc2cc(O)cc(O)c12 [Quercetin],Quercetin in Grape Juice,[1]; Concord grape juice 50 mL after soybean flour 30 g/L,519 ng/mL
same,% Quercetin Sorbed to SF,[1],74%
same,Concentration of Quercetin in Soybean flour,[1],49.3 µg/g
same,% Quercetin Sorbed to SF,[1]; listed as quercetin,about 74%
same,Concentration of Quercetin in Soybean flour,[1]; listed as quercetin,approximately 49.3 μg/g
Cn1c(=O)c2c(ncn2C)n(C)c1=O [caffeine],Caffeine Concentration,[2],383.1 mg/L
CC1=C2C(=O)C=C(CO)[C@@H]2[C@H]2OC(=O)[C@@H](C)[C@@H]2[C@H](OC(=O)Cc2ccc(O)cc2)C1 [dihydrolactucopicrin],% of compound sorbed by soybean flour from chicory root extract (percent decrease in peak area),[3],80%
lactucopicrin,% of compound sorbed by soybean flour from chicory root extract (percent decrease in peak area),[3],100%
"CCCCC[C@H](O)CC(=O)CCc1ccc(O)c(OC)c1 [6-gingerol, 6-Gingerol]",% of 6-gingerol sorbed by soybean flour (percent decrease in peak area),[4],63%
Oc1ccc(C=Cc2cc(O)cc(O)c2)cc1 [Resveratrol],Bound resveratrol (amount),[5]; 1.5 g soybean flour in 50 mL grape juice,88.8 mg
same,Resveratrol in Grape Juice,"[5]; Concord grape juice 50 mL after soybean flour 30 g/L, 5 minutes, n=1",325 ng/mL
same,% Resveratrol Sorbed to SF,[5]; [6],85%
same,Concentration of Resveratrol in SF,[5]; [6],59.2 µg/g
